For data set [1], the system named is Homo sapiens. Description: AUC (0 to last) in healthy human at 500 mg, po administered as single dose. On the set-up: dose 500 mg, time 0 - last, route oral. The settings on record: in vivo. The data set is classed as ADME, organism-based, Plasma.
For data set [2], the system named is Homo sapiens. Description: AUC (0 to infinity) in healthy human at 500 mg, po administered as single dose. On the set-up: dose 500 mg, route oral, time infinity. The settings on record: in vivo. Type of data set: ADME, organism-based, Plasma.

As to `CC(=O)OCC(CCn1cnc2cnc(N)nc21)COC(C)=O` [FAMCICLOVIR], the AUC with Homo sapiens [1] was found to be 8.54 ug/hr.ml; with Homo sapiens [2], 8.94 ug/hr.ml.

(Values after ChEMBL document CHEMBL1649203, “Pharmacokinetics and safety of famciclovir in children with herpes simplex or varicella-zoster virus infection” (Antimicrob Agents Chemother, 2009).)
